Measured values reported in article PMC10796475, “Immobilization of Thermoplasma acidophilum Glucose Dehydrogenase and Isocitrate Dehydrogenase Through Enzyme-Inorganic Hybrid Nanocrystal Formation” (Current Microbiology, 2024).

What was measured:
[1] = biological target: T1, TaIDH (T. acidophilum isocitrate dehydrogenase) (Thermoplasma acidophilum, UniProt Q9HLV8); experiment: NADPH formation at […] nm, initial rate (oxidative decarboxylation); type: biochemical; conditions: free enzyme; NADP+ 0.2 mM, MgCl2 0.4 mM; HEPES-NaOH pH 6.5, 37 °C; partially purified
T1 construct: gene Ta0117; pET21b(+) in E. coli BL21(DE3)pLysS; partially purified by heat treatment (60 °C, 15 min)
T1 sequence (Q9HLV8 1-405): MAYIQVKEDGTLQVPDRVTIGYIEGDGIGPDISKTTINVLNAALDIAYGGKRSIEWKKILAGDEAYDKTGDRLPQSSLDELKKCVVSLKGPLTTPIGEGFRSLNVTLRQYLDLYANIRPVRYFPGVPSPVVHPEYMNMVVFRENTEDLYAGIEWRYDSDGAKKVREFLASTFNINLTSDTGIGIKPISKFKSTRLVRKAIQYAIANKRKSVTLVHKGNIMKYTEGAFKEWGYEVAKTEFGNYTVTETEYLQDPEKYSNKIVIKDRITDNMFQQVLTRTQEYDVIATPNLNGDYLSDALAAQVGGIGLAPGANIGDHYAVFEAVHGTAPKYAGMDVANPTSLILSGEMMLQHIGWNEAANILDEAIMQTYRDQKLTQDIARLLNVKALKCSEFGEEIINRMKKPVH

[2] = biological target: T2, TaGDH (Thermoplasma acidophilum glucose dehydrogenase) (Thermoplasma acidophilum, UniProt P13203); experiment: NADPH formation at […] nm, initial rate; type: biochemical; conditions: free enzyme; NADP+ 0.2 mM; HEPES-NaOH pH 6.5, 37 °C; partially purified
T2 construct: gene gdh; pET21b(+) in E. coli Rosetta(DE3)pLysS; partially purified by heat treatment (60 °C, 15 min)
T2 sequence (P13203 2-361): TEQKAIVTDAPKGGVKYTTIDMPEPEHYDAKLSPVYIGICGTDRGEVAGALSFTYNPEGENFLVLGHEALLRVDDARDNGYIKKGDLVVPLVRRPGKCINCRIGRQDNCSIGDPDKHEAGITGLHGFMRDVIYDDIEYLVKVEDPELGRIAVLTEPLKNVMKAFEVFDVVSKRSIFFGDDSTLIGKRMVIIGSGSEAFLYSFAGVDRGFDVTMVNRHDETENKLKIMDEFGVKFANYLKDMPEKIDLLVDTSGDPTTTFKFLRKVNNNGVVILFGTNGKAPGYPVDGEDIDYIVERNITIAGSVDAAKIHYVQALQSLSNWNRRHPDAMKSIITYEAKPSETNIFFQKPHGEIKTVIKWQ

Row | SMILES | NADPH formation at 340 nm, initial rate (oxidative decarboxylation) [1] | NADPH formation at 340 nm, initial rate [2]
1 | O=C(O)CC(C(=O)O)C(O)C(=O)O (racemic) [DL-isocitric acid] | NADPH released by the decarboxylation and oxidation of DL-isocitric acid per minute | –
2 | OC[C@H]1OC(O)[C@H](O)[C@@H](O)[C@@H]1O (stereo partly drawn) [D-glucose] | – | micromoles of NADPH released by the oxidation of glucose per minute
